Data taken from patent US8658604B2, “Template-fixed beta-hairpin peptidomimetics with protease inhibitory activity” (Polyphor Ltd, priority 2005, dated 2014).
Where a SMILES comes first, the peptide text is derived from it.

Tests used:
HELA cells (Acc57) = assay: Cytotoxicity assay (MTT reduction), HELA cells; format: cell-based; conditions: Hela cells
Method: The cytotoxicity of the peptides to HELA cells (Acc57) and COS-7 cells (CRL-1651) was determined using the MTT reduction assay [see ref. 2 and 3, below]. Briefly the method was as follows: HELA cells and COS-7 cells were seeded at 7.0×10^3 and, respectively, 4.5×10^3 cells per well and grown in 96-well microtiter plates for 24 hours at 37° C. at 5% CO2. At this point, time zero (Tz) was determined by MTT reduction (see below). The supernatant of the remaining wells was discarded, and fresh medium and the peptides in serial dilutions of 12.5, 25 and 50 μM were pipetted into the wells. Each peptide concentration was assayed in triplicate. Incubation of the cells was continued for 48 hours at 37° C. at 5% CO2. Wells were then washed once with phosphate buffered saline (PBS) and subsequently 100 μl MTT reagent (0.5 mg/ml in medium RPMI1640 and, respectively, DMEM) were added to the wells. This was incubated at 37° C. for 2 hours and subsequently the medium was aspirated and 100 μl isopropanol were added to each well. The absorbance at 595 nm of the solubilized product was measured (OD595peptide). For each concentration averages were calculated from triplicates. The percentage of growth was calculated as follows: (OD595peptide-OD595Tz-OD595Empty well)/(OD595Tz-OD595Empty well)×100% and was plotted for each peptide concentration.
The LC 50 values (Lethal Concentration, defined as the concentration that kills 50% of the cells) were determined for each peptide by using the trend line function of EXCEL (Microsoft Office 2000) for the concentrations (50, 25, 12.5 and 0 μM), the corresponding growth percentages and the value −50, (=TREND(C50:C0,%50:%0,−50)).
The GI 50 (Growth Inhibition) concentrations were calculated for each peptide by using a trend line function for the concentrations (50, 25, 12.5 and 0 μg/ml), the corresponding percentages and the value 50, (=TREND (C50:C0,%50:%0,50).

[1] = system: Tryptase, from human lung; assay: Enzymatic assay, tryptase; conditions: at 100 μM
[2] = target: Chymotrypsin, from human pancreas (Homo sapiens, UniProt P17538); assay: Enzymatic assay, chymotrypsin
[3] = target: T1, Elastase from human neutrophils (Homo sapiens, UniProt P08246); assay: Enzymatic assay, elastase; conditions: Elastase IC50
T1 sequence (P08246 30-267): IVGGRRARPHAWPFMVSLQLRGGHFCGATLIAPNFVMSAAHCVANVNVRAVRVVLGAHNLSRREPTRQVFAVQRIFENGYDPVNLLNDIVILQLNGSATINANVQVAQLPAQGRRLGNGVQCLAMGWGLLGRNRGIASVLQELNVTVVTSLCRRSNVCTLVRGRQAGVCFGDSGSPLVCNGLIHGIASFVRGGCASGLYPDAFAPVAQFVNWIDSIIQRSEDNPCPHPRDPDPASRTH

Chain of Chymotrypsin, from human pancreas (P17538 19-263): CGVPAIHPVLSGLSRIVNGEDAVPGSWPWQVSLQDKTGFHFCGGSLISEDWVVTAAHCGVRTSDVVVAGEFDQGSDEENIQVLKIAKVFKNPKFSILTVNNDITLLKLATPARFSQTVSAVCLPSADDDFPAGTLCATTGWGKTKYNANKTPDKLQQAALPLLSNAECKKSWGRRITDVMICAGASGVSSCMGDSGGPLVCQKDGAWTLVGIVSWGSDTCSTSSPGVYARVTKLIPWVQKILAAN

**Q.** Which results are given for CC[C@H](C)[C@@H]1NC(=O)[C@@H]2CCCN2C(=O)[C@@H]2CCCN2C(=O)[C@H](CC(=O)O)NC(=O)[C@H]([C@H](C)O)NC(=O)[C@H](CCCCN)NC(=O)[C@H]([C@@H](C)O)NC(=O)[C@@H]2CSSC[C@H](NC1=O)C(=O)N[C@@H](CO)C(=O)N1CCC[C@@H]1C(=O)N1CCC[C@H]1C(=O)N[C@@H](Cc1ccccc1)C(=O)N2 [Ex. 24] (HELM PEPTIDE1{F.C.T.K.[C[C@H](O)[C@H](N[*:1])C(=O)[*:2]].D.P.P.I.C.S.[dP].P}$PEPTIDE1,PEPTIDE1,2:R3-10:R3|PEPTIDE1,PEPTIDE1,1:R1-13:R2$$$V2.0)?
**A.** Cytotoxicity LC50/GI50 Hela cells (HELA cells (Acc57)): 99 µM; Tryptase at 100 μM % [1]: 0%

**Q.** CCCCCC[C@@H]1NC(=O)[C@H](CO)NC(=O)[C@H](C)NC(=O)[C@H]([C@@H](C)O)NC(=O)[C@@H]2CSSC[C@H](NC(=O)[C@H](CCC(N)=O)NC(=O)[C@@H]3CCCN3C(=O)[C@@H]3CCCN3C1=O)C(=O)N[C@@H](Cc1ccc(O)cc1)C(=O)N1CCC[C@@H]1C(=O)N1CCC[C@H]1C(=O)N[C@@H](CCCC)C(=O)N2 [Ex. 80] (HELM PEPTIDE1{[Nle].C.T.A.S.[CCCCCC[C@H](N[*:1])C(=O)[*:2]].P.P.Q.C.Y.[dP].P}$PEPTIDE1,PEPTIDE1,2:R3-10:R3|PEPTIDE1,PEPTIDE1,1:R1-13:R2$$$V2.0) was tested. Which IC50 [2] did it give?
**A.** The IC50 was > 20 µM.

**Q.** And the IC50 [3]?
**A.** Its IC50 is 35 nM.

**Q.** What about the Cytotoxicity LC50/GI50 Hela cells (HELA cells (Acc57)) of the same compound?
**A.** The Cytotoxicity LC50/GI50 Hela cells was 12 µM.

**Q.** How did the IC50 [3] turn out when CCCC[C@@H]1NC(=O)[C@@H]2CCCN2C(=O)[C@H]2CCCN2C(=O)[C@H](Cc2ccc(O)cc2)NC(=O)[C@@H]2CSSC[C@H](NC1=O)C(=O)N[C@@H]([C@@H](C)O)C(=O)N[C@@H](C)C(=O)N[C@@H](CO)C(=O)N[C@@H]([C@@H](C)CC)C(=O)N1CCC[C@H]1C(=O)N1CCC[C@H]1C(=O)N[C@@H](Cc1ccccc1)C(=O)N2 [Ex. 89] (HELM PEPTIDE1{[Nle].C.T.A.S.I.P.P.F.C.Y.[dP].P}$PEPTIDE1,PEPTIDE1,2:R3-10:R3|PEPTIDE1,PEPTIDE1,1:R1-13:R2$$$V2.0) was run?
**A.** The IC50 was 43 nM.

**Q.** And the Cytotoxicity LC50/GI50 Hela cells (HELA cells (Acc57))?
**A.** The Cytotoxicity LC50/GI50 Hela cells was 51 µM.

**Q.** Which results are given for CCCC[C@@H]1NC(=O)[C@@H]2CCCN2C(=O)[C@H]2CCCN2C(=O)[C@H](CCCNC(=N)N)NC(=O)[C@@H]2CSSC[C@H](NC1=O)C(=O)N[C@@H]([C@@H](C)O)C(=O)N[C@@H](C)C(=O)N[C@@H](CO)C(=O)N[C@@H]([C@@H](C)CC)C(=O)N1CCC[C@H]1C(=O)N1CCC[C@H]1C(=O)N[C@@H](CCC(N)=O)C(=O)N2 [Ex. 92] (HELM PEPTIDE1{[Nle].C.T.A.S.I.P.P.Q.C.R.[dP].P}$PEPTIDE1,PEPTIDE1,2:R3-10:R3|PEPTIDE1,PEPTIDE1,1:R1-13:R2$$$V2.0)?
**A.** IC50 [3]: 43 nM; Cytotoxicity LC50/GI50 Hela cells (HELA cells (Acc57)): 93 µM

**Q.** What does the source list for CCCC[C@@H]1NC(=O)[C@@H]2CCCN2C(=O)[C@H]2CCCN2C(=O)[C@H](CO)NC(=O)[C@@H]2CSSC[C@H](NC1=O)C(=O)N[C@@H]([C@@H](C)O)C(=O)N[C@@H](C)C(=O)N[C@@H](CO)C(=O)N[C@@H]([C@@H](C)CC)C(=O)N1CCC[C@H]1C(=O)N1CCC[C@H]1C(=O)N[C@@H](CCC(N)=O)C(=O)N2 [Ex. 93] (HELM PEPTIDE1{[Nle].C.T.A.S.I.P.P.Q.C.S.[dP].P}$PEPTIDE1,PEPTIDE1,2:R3-10:R3|PEPTIDE1,PEPTIDE1,1:R1-13:R2$$$V2.0)?
**A.** IC50 [3]: 41 nM; Cytotoxicity LC50/GI50 Hela cells (HELA cells (Acc57)): 100 µM; Tryptase at 100 μM % [1]: 5.6%

**Q.** How did the Cytotoxicity LC50/GI50 Hela cells (HELA cells (Acc57)) turn out when CC[C@H](C)[C@@H]1NC(=O)[C@H](CO)NC(=O)[C@H](C)NC(=O)[C@H]([C@@H](C)O)NC(=O)[C@@H]2CSSC[C@H](NC(=O)[C@H](CCC(N)=O)NC(=O)[C@@H]3CCCN3C(=O)[C@@H]3CCCN3C1=O)C(=O)N[C@@H](Cc1ccc(O)cc1)C(=O)N1CCC[C@@H]1C(=O)N1CCC[C@H]1C(=O)N[C@@H](CCC(C)C)C(=O)N2 [Ex. 100] (HELM PEPTIDE1{[CC(C)CC[C@H](N[*:1])C(=O)[*:2]].C.T.A.S.I.P.P.Q.C.Y.[dP].P}$PEPTIDE1,PEPTIDE1,2:R3-10:R3|PEPTIDE1,PEPTIDE1,1:R1-13:R2$$$V2.0) was run?
**A.** The Cytotoxicity LC50/GI50 Hela cells was 83 µM.

**Q.** How did the Cytotoxicity LC50/GI50 Hela cells (HELA cells (Acc57)) turn out when CCCC[C@@H]1NC(=O)[C@@H]2CCCN2C(=O)[C@H]2CCCN2C(=O)[C@H](Cc2ccc(O)cc2)NC(=O)[C@@H]2CSSC[C@H](NC1=O)C(=O)N[C@@H]([C@@H](C)O)C(=O)N[C@@H](C)C(=O)N[C@@H](CO)C(=O)N[C@@H](CC1CCCC1)C(=O)N1CCC[C@H]1C(=O)N1CCC[C@H]1C(=O)N[C@@H](CCC(N)=O)C(=O)N2 [Ex. 112] (HELM PEPTIDE1{[Nle].C.T.A.S.[O=C([C@H](CC1CCCC1)N[*:1])[*:2]].P.P.Q.C.Y.[dP].P}$PEPTIDE1,PEPTIDE1,2:R3-10:R3|PEPTIDE1,PEPTIDE1,1:R1-13:R2$$$V2.0) was run?
**A.** Its Cytotoxicity LC50/GI50 Hela cells is 33 µM.

**Q.** CC[C@H](C)[C@@H]1NC(=O)[C@@H]2CCCN2C(=O)[C@H]2CCCN2C(=O)[C@H](Cc2ccc(O)cc2)NC(=O)[C@@H]2CSSC[C@H](NC1=O)C(=O)N[C@@H]([C@@H](C)O)C(=O)N[C@@H](C)C(=O)N[C@@H](CO)C(=O)N[C@@H](CC(C)C)C(=O)N1CCC[C@H]1C(=O)N1CCC[C@H]1C(=O)N[C@@H](Cc1ccc(O)cc1)C(=O)N2 [Ex. 114] (HELM PEPTIDE1{I.C.T.A.S.L.P.P.Y.C.Y.[dP].P}$PEPTIDE1,PEPTIDE1,2:R3-10:R3|PEPTIDE1,PEPTIDE1,1:R1-13:R2$$$V2.0) was tested. Which IC50 [3] did it give?
**A.** The IC50 was 47 nM.

**Q.** And the Cytotoxicity LC50/GI50 Hela cells (HELA cells (Acc57))?
**A.** Its Cytotoxicity LC50/GI50 Hela cells is 34 µM.

**Q.** CCCC[C@@H]1NC(=O)[C@@H]2CCCN2C(=O)[C@@H](CCCNC(=N)N)NC(=O)[C@H](Cc2ccc(O)cc2)NC(=O)[C@@H]2CSSC[C@H](NC1=O)C(=O)N[C@@H]([C@@H](C)O)C(=O)N[C@@H](C)C(=O)N[C@@H](CO)C(=O)N[C@@H]([C@@H](C)CC)C(=O)N1CCC[C@H]1C(=O)N1CCC[C@H]1C(=O)N[C@@H](CCC(N)=O)C(=O)N2 [Ex. 117] (HELM PEPTIDE1{A.S.I.P.P.Q.C.Y.[dR].P.[Nle].C.T}$PEPTIDE1,PEPTIDE1,7:R3-12:R3|PEPTIDE1,PEPTIDE1,1:R1-13:R2$$$V2.0) was tested. Which IC50 [3] did it give?
**A.** Its IC50 is 33 nM.

**Q.** What about the Cytotoxicity LC50/GI50 Hela cells (HELA cells (Acc57)) of the same compound?
**A.** Its Cytotoxicity LC50/GI50 Hela cells is 29 µM.

**Q.** What does the source list for CCCC[C@@H]1NC(=O)[C@@H]2CCCN2C(=O)[C@H]2CCCCN2C(=O)[C@H](Cc2ccc(O)cc2)NC(=O)[C@@H]2CSSC[C@H](NC1=O)C(=O)N[C@@H]([C@@H](C)O)C(=O)N[C@@H](C)C(=O)N[C@@H](CO)C(=O)N[C@@H]([C@@H](C)CC)C(=O)N1CCC[C@H]1C(=O)N1CCC[C@H]1C(=O)N[C@@H](CCC(N)=O)C(=O)N2 [Ex. 120] (HELM PEPTIDE1{A.S.I.P.P.Q.C.Y.[O=C([C@H]1CCCCN1[*:1])[*:2]].P.[Nle].C.T}$PEPTIDE1,PEPTIDE1,7:R3-12:R3|PEPTIDE1,PEPTIDE1,1:R1-13:R2$$$V2.0)?
**A.** IC50 [3]: 29 nM; Cytotoxicity LC50/GI50 Hela cells (HELA cells (Acc57)): 38 µM

**Q.** How did the IC50 [3] turn out when CCCC[C@@H]1NC(=O)[C@H](CO)NC(=O)[C@H]2CCCN2C(=O)[C@H](Cc2ccc(O)cc2)NC(=O)[C@@H]2CSSC[C@H](NC1=O)C(=O)N[C@@H]([C@@H](C)O)C(=O)N[C@@H](C)C(=O)N[C@@H](CO)C(=O)N[C@@H]([C@@H](C)CC)C(=O)N1CCC[C@H]1C(=O)N1CCC[C@H]1C(=O)N[C@@H](CCC(N)=O)C(=O)N2 [Ex. 124] (HELM PEPTIDE1{A.S.I.P.P.Q.C.Y.[dP].S.[Nle].C.T}$PEPTIDE1,PEPTIDE1,7:R3-12:R3|PEPTIDE1,PEPTIDE1,1:R1-13:R2$$$V2.0) was run?
**A.** The IC50 was 40 nM.

**Q.** What about the Cytotoxicity LC50/GI50 Hela cells (HELA cells (Acc57)) of the same compound?
**A.** The Cytotoxicity LC50/GI50 Hela cells was 40 µM.
